For one test, the target named is T1, recombinant human CLK3 (Homo sapiens, UniProt P49761).
T1 construct: purchased Thermo Fisher Scientific PV3826
Description: CLK3 kinase assay (LANCE Ultra). In kind it is biochemical. The conditions noted are these: CLK3 0.5 nM, ATP 300 μM, 3 hours at 30° C. The method, boiled down:
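Recombinant human CLK3 (0.5 nM) with ULight-CREBtide (50 nM) and 300 μM ATP, 3 h at 30 °C in kinase buffer; EDTA stop, then Eu-anti-phospho-CREB antibody (2 nM, 1 h RT), TR-FRET read at 665/620 nm. Inhibition normalized to DMSO and no-ATP wells; IC50 from 4-parameter fit, ten 1:3 concentrations in duplicate.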

The next test deals with MDA-MB-231 cells. Description: MDA-MB-231 proliferation assay. In kind it is cell-based. Conditions: Homo sapiens, MDA-MB-231, 72 h, YO-PRO-1 Iodide readout. Put shortly:
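Cells seeded at 750 per well, treated next day for 72 h at 37 °C with 0.5% final DMSO. Cell number read by YO-PRO-1 fluorescence after lysis, normalized to DMSO (100%) and time-zero cells (0%). GI50 from 4-parameter logistic fit, maximum constrained to 100%.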

T1 sequence (P49761 whole entry): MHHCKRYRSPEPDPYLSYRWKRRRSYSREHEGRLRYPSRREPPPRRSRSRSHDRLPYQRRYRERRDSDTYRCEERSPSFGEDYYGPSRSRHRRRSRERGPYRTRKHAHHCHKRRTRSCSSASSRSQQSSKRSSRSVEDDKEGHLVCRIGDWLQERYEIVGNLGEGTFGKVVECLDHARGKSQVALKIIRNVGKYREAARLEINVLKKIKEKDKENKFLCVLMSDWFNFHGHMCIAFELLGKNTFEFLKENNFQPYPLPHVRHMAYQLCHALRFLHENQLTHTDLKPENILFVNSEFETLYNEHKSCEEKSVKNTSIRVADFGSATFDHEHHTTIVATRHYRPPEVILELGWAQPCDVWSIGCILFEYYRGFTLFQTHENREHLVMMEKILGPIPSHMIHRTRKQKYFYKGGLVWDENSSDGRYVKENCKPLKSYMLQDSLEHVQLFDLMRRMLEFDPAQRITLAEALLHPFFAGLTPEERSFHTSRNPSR

A word on the IC50: it is the point on the concentration scale where inhibition reaches its midpoint. The GI50 is the concentration at which growth is held to half of that of the control. As to `COCCN(C)c1c(O[C@H]2CC[C@H](N)CC2)ccc2c1CC(C)(C)c1c(N)ncnc1-2` [Example 13, 8-(trans-4-aminocyclohexoxy)-N7-(2-methoxyethyl)-N7,5,5-trimethyl-6H-benzo[h]quinazoline-4,7-diamine], the IC50 at recombinant human CLK3 was in the range of 30 to 100 nM. For the same molecule, the 50% growth inhibitory concentration (GI50) in the test with MDA-MB-231 cells is 100 to 2000 nM.

These data come from patent publication US20260159486A1, “BENZO[H]QUINAZOLINE-4-AMINE DERIVATIVES FOR THE TREATMENT OF CANCER” (Redona Therapeutics, Inc., priority 2021, published 2026).
